{"source": "patent US20050261260A1", "about": "“Combination of a CDK inhibitor and mitoxantrone” (Cyclacel Limited, priority 2002, published 2005)", "key": {"[1]": {"tested_on": "prostate tumor cells (PC-3)"}, "[2]": {"tested_on": "prostate tumor cells (PC-3)", "test": "cells", "details": "Homo sapiens, 24 h, read-out: IC50 (concentration listed as 100 % IC50), PC-3"}, "[3]": {"details": "mitoxantrone 24 h then roscovitine 24 h, % IC50 100/0: roscovitine 30.00 ug/ml, mitox. 0"}, "[4]": {"details": "concurrent 24 h exposure, % IC50 0/100: roscovitine 0, mitox. 12.50 ng/ml"}, "[5]": {"details": "mitoxantrone 24 h then roscovitine 24 h, % IC50 0/100: roscovitine 0, mitox. 15.00 ng/ml"}, "[6]": {"details": "roscovitine 24 h then mitoxantrone 24 h, % IC50 0/100: roscovitine 0, mitox. 10.00 ng/ml"}}, "note": "Where “and” joins values, the source holds several entries; their conditions need not be identical. Equal values may be shown once. Read-outs that look alike come from different tables or passages of the source."}
{"smiles": "CC[C@H](CO)Nc1nc(NCc2ccccc2)c2ncn(C(C)C)c2n1", "note": "[Roscovitine, 6-benzylamino-2-[(R)-1-ethyl-2-hydroxyethylamino]-9-isopropylpurine]", "values": [{"measurement": "% Abs", "setting": "[1]; [3]", "result": 21.9, "unit": "%"}, {"measurement": "% Response", "setting": "[1]; [3]", "result": 78.1, "unit": "%"}, {"measurement": "Mean (absorbance)", "setting": "[1]; [3]", "result": 0.171}, {"measurement": "Well 1-3 (absorbance)", "setting": "[1]; [3]", "result": "0.165 and 0.162 and 0.186"}]}
{"smiles": "O=C1c2c(O)ccc(O)c2C(=O)c2c(NCCNCCO)ccc(NCCNCCO)c21", "note": "[Mitoxantrone, 1,4-dihydroxy-5,8-bis[{2-[(2-hydroxyethyl)amino]ethyl}amino]-9,10-anthracendione]", "values": [{"measurement": "% Abs", "setting": "[1]; [4]", "result": "51.8% and 54.7%"}, {"measurement": "% Response", "setting": "[1]; [4]", "result": 45.3, "unit": "%"}, {"measurement": "Mean (absorbance)", "setting": "[1]; [4]", "result": 0.418}, {"measurement": "Well 1-3 (absorbance)", "setting": "[1]; [4]", "result": "0.415 and 0.424 and 0.414"}, {"measurement": "% Abs", "setting": "[1]; [5]", "result": 47.0, "unit": "%"}, {"measurement": "% Response", "setting": "[1]; [5]", "result": 53.0, "unit": "%"}, {"measurement": "Mean (absorbance)", "setting": "[1]; [5]", "result": 0.367}, {"measurement": "Well 1-3 (absorbance)", "setting": "[1]; [5]", "result": "0.373 and 0.371 and 0.358"}, {"measurement": "% Abs", "setting": "[1]; [6]", "result": 62.7, "unit": "%"}, {"measurement": "% Response", "setting": "[1]; [6]", "result": 37.3, "unit": "%"}, {"measurement": "Mean (absorbance)", "setting": "[1]; [6]", "result": 0.501}, {"measurement": "Well 1-3 (absorbance)", "setting": "[1]; [6]", "result": "0.532 and 0.487 and 0.483"}, {"measurement": "IC50", "setting": "[2]; Table 3, roscovitine 24 h then mitoxantrone 24 h", "result": 0.01, "unit": "µg/mL"}, {"measurement": "IC50", "setting": "[2]; Table 5, mitoxantrone 24 h then roscovitine 24 h", "result": 0.015, "unit": "µg/mL"}, {"measurement": "IC50", "setting": "[2]; Table 7, concurrent 24 h exposure", "result": 0.0125, "unit": "µg/mL"}]}
